Assay results reported in ChEMBL document CHEMBL1201862, “PubChem BioAssay data set” (2004).
The source made the active and inactive calls.

What was measured:
HEK293 [1] = assay: HEK cell cytotoxicity by LDH release, dose response, cytotoxicity control for IDE activator project, fluorescence, HEK cells (AID 588440); format: functional, cell-based; conditions: Homo sapiens;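 further: cytotoxicity by LDH release measuring loss of membrane integrity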
Insulin-degrading enzyme [2] = biological target: T1, Insulin-degrading enzyme (Homo sapiens, UniProt P14735); assay: activators of endogenous IDE in HEK cells, dose response, cell-based, fluorescence polarization (AID 588439); format: functional
T1 sequence (P14735 whole entry): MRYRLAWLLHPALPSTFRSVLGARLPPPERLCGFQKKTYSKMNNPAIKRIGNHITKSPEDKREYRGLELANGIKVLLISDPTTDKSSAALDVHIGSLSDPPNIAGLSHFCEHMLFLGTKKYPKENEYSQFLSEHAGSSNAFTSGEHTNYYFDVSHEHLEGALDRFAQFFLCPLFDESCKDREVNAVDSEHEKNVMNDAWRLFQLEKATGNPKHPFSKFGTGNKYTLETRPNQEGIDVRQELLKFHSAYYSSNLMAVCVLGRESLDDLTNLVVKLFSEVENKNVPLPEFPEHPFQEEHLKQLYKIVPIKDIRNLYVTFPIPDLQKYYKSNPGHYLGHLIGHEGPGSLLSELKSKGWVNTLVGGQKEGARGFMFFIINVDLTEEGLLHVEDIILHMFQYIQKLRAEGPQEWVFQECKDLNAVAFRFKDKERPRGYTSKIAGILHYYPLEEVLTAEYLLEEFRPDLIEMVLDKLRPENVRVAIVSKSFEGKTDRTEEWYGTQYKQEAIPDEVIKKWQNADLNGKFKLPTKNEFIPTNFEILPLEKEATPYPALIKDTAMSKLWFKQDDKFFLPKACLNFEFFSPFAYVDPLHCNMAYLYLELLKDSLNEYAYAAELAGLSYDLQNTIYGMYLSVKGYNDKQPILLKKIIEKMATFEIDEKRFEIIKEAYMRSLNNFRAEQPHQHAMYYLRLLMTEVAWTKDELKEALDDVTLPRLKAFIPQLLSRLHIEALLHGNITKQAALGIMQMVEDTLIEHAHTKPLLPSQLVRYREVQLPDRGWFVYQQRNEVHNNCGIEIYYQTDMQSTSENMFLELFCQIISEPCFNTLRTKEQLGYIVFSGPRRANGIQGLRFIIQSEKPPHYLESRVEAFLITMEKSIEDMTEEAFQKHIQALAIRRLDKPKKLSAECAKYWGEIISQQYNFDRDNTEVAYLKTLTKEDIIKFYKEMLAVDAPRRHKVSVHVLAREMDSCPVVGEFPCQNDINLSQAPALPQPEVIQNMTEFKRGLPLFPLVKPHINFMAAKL

Insulin-degrading enzyme [3] = biological target: T1, Insulin-degrading enzyme; assay: activators of recombinant IDE enzyme, dose response, counter-screen for IDE activator project, biochemical, fluorescence polarization (AID 588681)
[4] = biological target: FAD-linked sulfhydryl oxidase ALR (Homo sapiens, UniProt P55789); assay: inhibitors of human ALR sulfhydryl oxidase, dose response, biochemical, H2O2 detection, luminescence, cherry-pick (AID 493248)
Sequence of FAD-linked sulfhydryl oxidase ALR (P55789 whole entry): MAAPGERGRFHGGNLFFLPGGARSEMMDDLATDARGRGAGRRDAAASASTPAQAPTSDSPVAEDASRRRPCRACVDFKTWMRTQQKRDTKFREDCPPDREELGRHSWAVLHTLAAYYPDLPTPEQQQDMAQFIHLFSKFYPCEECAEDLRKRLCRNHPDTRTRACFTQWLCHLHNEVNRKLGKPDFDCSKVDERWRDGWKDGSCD

HEK293 [5] = assay: optical interference in Abeta FP readout, dose response, artefact control for IDE activator project, biochemical, fluorescence polarization (AID 588442); format: functional, cell-based; conditions: Homo sapiens
[6] = biological target: C-X-C chemokine receptor type 5 (Homo sapiens, UniProt P32302); assay: CXCR5 receptor antagonists, SAR follow-up, selectivity assay for CCR6 antagonist project, cell-based, beta-arrestin, luminescence, CHO-K1 PathHunter (AID 540340); format: functional
Sequence of C-X-C chemokine receptor type 5 (P32302 whole entry): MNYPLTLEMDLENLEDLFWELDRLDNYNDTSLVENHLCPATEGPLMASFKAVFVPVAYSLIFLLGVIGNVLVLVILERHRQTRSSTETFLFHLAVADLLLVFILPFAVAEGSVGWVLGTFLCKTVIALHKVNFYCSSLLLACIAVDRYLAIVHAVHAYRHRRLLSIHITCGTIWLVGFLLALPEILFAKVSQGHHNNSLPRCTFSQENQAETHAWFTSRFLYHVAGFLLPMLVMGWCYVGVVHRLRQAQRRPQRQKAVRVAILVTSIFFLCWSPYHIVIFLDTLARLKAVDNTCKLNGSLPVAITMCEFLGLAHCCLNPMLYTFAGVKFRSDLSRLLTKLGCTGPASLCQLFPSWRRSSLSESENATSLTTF

[7] = biological target: T2, C-C chemokine receptor type 6 (Homo sapiens, UniProt P51684); assay: CCR6 receptor antagonists, SAR follow-up, cell-based, luminescent beta-arrestin readout (AID 540334); format: functional
T2 sequence (P51684 whole entry): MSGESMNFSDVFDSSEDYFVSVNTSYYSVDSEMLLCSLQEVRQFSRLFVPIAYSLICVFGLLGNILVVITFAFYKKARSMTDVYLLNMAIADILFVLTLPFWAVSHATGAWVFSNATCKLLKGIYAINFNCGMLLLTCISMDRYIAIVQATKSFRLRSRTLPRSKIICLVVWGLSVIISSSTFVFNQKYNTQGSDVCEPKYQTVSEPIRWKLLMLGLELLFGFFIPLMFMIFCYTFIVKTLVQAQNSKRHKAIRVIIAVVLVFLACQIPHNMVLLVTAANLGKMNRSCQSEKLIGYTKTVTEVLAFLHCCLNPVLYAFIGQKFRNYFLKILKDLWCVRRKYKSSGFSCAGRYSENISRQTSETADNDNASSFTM

Apelin receptor = Apelin receptor (Homo sapiens, UniProt P35414); assay: APJ beta-arrestin recruitment antagonism, SAR follow-up, selectivity assay for CCR6 antagonist project, cell-based, luminescent, enzyme-fragment complementation (AID 588359); format: functional
Sequence of Apelin receptor (P35414 whole entry, the tested form may be a part): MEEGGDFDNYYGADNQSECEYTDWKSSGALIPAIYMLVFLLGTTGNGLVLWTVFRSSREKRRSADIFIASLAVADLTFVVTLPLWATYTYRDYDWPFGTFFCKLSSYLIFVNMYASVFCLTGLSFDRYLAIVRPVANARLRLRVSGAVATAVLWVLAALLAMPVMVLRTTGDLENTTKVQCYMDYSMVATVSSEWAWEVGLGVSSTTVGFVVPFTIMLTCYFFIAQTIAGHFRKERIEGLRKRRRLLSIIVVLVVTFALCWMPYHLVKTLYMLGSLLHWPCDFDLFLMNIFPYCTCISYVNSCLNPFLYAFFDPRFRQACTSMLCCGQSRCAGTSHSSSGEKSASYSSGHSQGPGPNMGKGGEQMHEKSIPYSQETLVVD

`COc1cccc(CNc2ccc3c(c2)ncn3C(C)C)c1OC` was tested, and the IC50 (HEK293 [1]) was > 89.2 µM (inactive), the EC50 (Insulin-degrading enzyme [2]) was 43.8 µM (inactive) and the EC50 (Insulin-degrading enzyme [3]) was > 54.7 µM (inactive). For the same molecule, the AC50 [4] was 2.58 µM (active) and the EC50 (HEK293 [5]) was > 55.9 µM (inactive).

For `C/C=C(\C)C(=O)OC1[C@H](OC(C)=O)C2(CO)C(CC1(C)C)C1=CCC3C4(C)CCC(O[C@@H]5O[C@H](C(=O)O)[C@@H](O[C@@H]6O[C@H](CO)[C@@H](O)[C@H](O)[C@H]6O)[C@H](O)[C@H]5O[C@H]5O[C@H](CO)[C@@H](O)[C@H](O)[C@H]5O)[C@](C)(CO)C4CCC3(C)[C@]1(C)C[C@H]2O` (stereo partly drawn), the IC50 [6] was 9.46 µM (inactive), the IC50 [7] was 7.82 µM (active) and the IC50 (Apelin receptor) was 9.07 µM (active).
